According to PMC6985722 (Antimicrobial Agents and Chemotherapy, 2020):
Values joined by “and” are separate entries in the source; they are usually repeats but may differ in a detail not shown here. Identical values can stand only once. Like-named read-outs stand apart in the source and are kept apart here.

How the values were obtained:
RSV-A Memphis-37b = experiment: RSV human challenge study: viral load in nasal wash by RT-qPCR; assay type: in vivo; conditions: for AUC of viral load (RT-qPCR), fixed time period of 6.5 days, mean (SE) / AUC of viral load (RT-qPCR), fixed time period of 6.5 days, reduction in mean vs placebo: fixed 6.5 days
Experimental: Subjects were screened outside the RSV season for eligibility, including measurement of RSV-A Memphis-37b-specific neutralizing antibody titer, ≤90 days before virus challenge. Eligible subjects were admitted to the quarantine unit on day −2 or day −1 and were inoculated intranasally on day 0 with the challenge virus, RSV-A Memphis-37b (4 log10 PFU/ml, given as one 0.4-ml installation per naris), as previously described ([26]). Nasal wash sampling every 12 h for confirmation of RSV infection by qualitative integrated cycler PCR ([12], [19]) began on the morning of day 2. Treatment began 12 h (±1 h) after collection of a nasal wash sample confirming RSV infection or on the evening of day 5 if RSV infection remained unconfirmed by the morning of day 5.
The study comprised two consecutive cohorts. […] Subjects were discharged on day 12 if nasopharyngeal swab samples tested negative by RSV rapid antigen assay (QuickVue RSV test; Quidel, San Diego, CA, USA). If such tests were positive or if a subject remained symptomatic, quarantine was extended to allow further observation. All subjects were evaluated on day 28 (±3 days).
(§1) Twice-daily collection of nasal wash samples allowed measurement of viral load via RT-qPCR and quantitative culture. RT-qPCR results were reported as PFUe/ml when the standard curve included in each assay contained a known infectious amount (PFU) of RSV, as described previously ([30]). Subjects reported the occurrence and severity of symptoms three times daily using a 10-item subject symptom diary card as previously reported ([12]) (see Supplemental Methods). Throughout the quarantine period, used tissues were collected and weighed daily, and total nasal mucus weight was recorded. PK assessments were based on venous blood samples. Safety assessments included measurement of vital signs, standard 12-lead ECG recordings, spirometry, a complete physical examination, and a respiratory-directed physical examination. AEs were monitored daily, coded according to the Medical Dictionary for Regulatory Activities Version 20.0, and graded according to the National Cancer Institute Common Terminology Criteria for Adverse Events Version 4.0 (see Supplemental Methods for further details).
The primary efficacy endpoint was AUC for RSV viral load, as measured by RT-qPCR, in nasal wash samples taken twice daily from just before the first dose until discharge (day 12). Viral load data were provided as log10 PFUe/ml; AUC (log10 PFUe/ml · h) was calculated using the trapezoid rule. Secondary efficacy endpoints related to viral load were AUC of RSV viral load, as assessed by quantitative culture, and the following measures, which were each assessed using both RT-qPCR and quantitative culture: peak viral load, time to peak viral load, and time to <1 log10 (for RT-qPCR) or undetectable (for quantitative culture) viral load (considered to occur at the first confirmed undetectable assessment after which no further virus was detected). Secondary efficacy endpoints related to clinical symptoms included AUC total symptom score; peak total symptom score; time to peak total symptom score; and the total weight of nasal mucus produced. Other secondary outcomes were safety, PK, and sequence detection of viral variants (see Supplemental Methods).
The primary efficacy analysis population (the ITT-I analysis set) comprised all randomized subjects who received challenge virus and at least one dose of study drug and met the criterion for laboratory-confirmed RSV infection (presence of detectable RSV). Sensitivity analyses were based on a subset of the ITT-I population who had first detectable RSV infection prior to study drug administration (the ITT-A analysis set) and a fixed time period of 6.5 days (comprising data for all subjects for 6.5 days of evaluation after the first dose, regardless of the staggered commencement of dosing). […]

[1] = RSV human challenge study: plasma pharmacokinetics; assay type: in vivo; conditions: for half-life / Tmax / concentration at 12 h / Cmax / AUC(0-t): human; for concentration at 12 h: 12 hours post-dose, read-out: Mean Cmin (SD); for Cmax: read-out: Mean Cmax (SD); for AUC(0-t): read-out: Geometric mean (CV) AUC0–12h
Experimental: as §1, with “RT-qPCR results were reported as PFUe/ml when the standard curve included in each assay contained a known infectious amount (PFU) of RSV, as described previously ([30]).” left out
The safety analysis set comprised all subjects who received challenge virus; the PK analysis set comprised all subjects who received the challenge virus and provided at least one postdose PK result.
PK parameters were derived by noncompartmental analysis using Phoenix WinNonlin version 6.4.1. Statistical analyses were performed using SAS software version 9.4 or later. […]
Outcomes. Safety outcomes included the occurrence of AEs. PK outcomes included the maximum plasma concentration, the minimum plasma concentration, the time to maximum plasma concentration, and the area under the plasma concentration-time curve with a dosing interval, calculated by the linear trapezoidal rule.

[2] = 200 mg, ITT-A, fixed time period of 6.5 days
[3] = 350 mg, ITT-A, fixed time period of 6.5 days

Structure (SMILES): NCc1ccc2c(c1)nc(CN1C(=O)C3(CC3)c3ccc(F)cc31)n2CCCC(F)(F)F [RV521]
- AUC of viral load (RT-qPCR), mean (SE) (RSV-A Memphis-37b; 200 mg, ITT-A): 236.81 (37.63) hours x log 10 PFUe/mL
- AUC of viral load (RT-qPCR), reduction in mean vs placebo (RSV-A Memphis-37b; 200 mg, ITT-A): 59.74%
- Peak viral load (RT-qPCR), mean (SE) (RSV-A Memphis-37b; 200 mg, ITT-A): 3.63 (0.26) log10 PFUe/mL
- Time to <1 log10 viral load (RT-qPCR), median (Q1, Q3) (RSV-A Memphis-37b; 200 mg, ITT-A): 3.0 (3.0, 6.0) days
- Time to peak viral load (RT-qPCR), mean (SE) (RSV-A Memphis-37b; 200 mg, ITT-A): 0.94 (0.11) days
- AUC of viral load (RT-qPCR), mean (SE) (RSV-A Memphis-37b; [2]): 234.29 (37.07) log10 PFUe/mL x hours
- AUC of viral load (RT-qPCR), reduction in mean vs placebo (RSV-A Memphis-37b; [2]): –276.21 log10 PFUe/mL x hours
- AUC of viral load (RT-qPCR), mean (SE) (RSV-A Memphis-37b; 200 mg, ITT-I): 224.35 log10 PFUe/ml · h and 224.35 (37.60) log10 PFUe/ml · h
- AUC of viral load (RT-qPCR), reduction in mean vs that of placebo (RSV-A Memphis-37b; 200 mg, ITT-I): 55.25%
- AUC of viral load (RT-qPCR, unlogged), mean (SE) (RSV-A Memphis-37b; 200 mg, ITT-I): 1,087,294.53 (604,070.11) PFUe/ml · h
- AUC of viral load (RT-qPCR, unlogged), reduction in mean vs that of placebo (RSV-A Memphis-37b; 200 mg, ITT-I): 99.10%
- Peak viral load (RT-qPCR), mean (SE) (RSV-A Memphis-37b; 200 mg, ITT-I): 3.47 log10 PFUe/ml and 3.47 (0.30) log10 PFUe/ml
- Time to <1 log10 viral load (RT-qPCR), median (Q1, Q3) (RSV-A Memphis-37b; 200 mg, ITT-I): 3.0 days and 3.0 (3.0, 6.0) (n = 17) days
- Time to peak viral load (RT-qPCR), mean (SE) (RSV-A Memphis-37b; 200 mg, ITT-I): 0.95 days and 0.95 (0.11) days
- Mean viral load at time of peak viral load in placebo arm (day 3; RT-qPCR), mean (SE) (RSV-A Memphis-37b; 200 mg, ITT-I): 1.35 (0.36) log10 PFUe/ml
- AUC of viral load (RT-qPCR), fixed time period of 6.5 days, mean (SE) (RSV-A Memphis-37b; 200 mg, ITT-I): 221.98 (37.05) log10 PFUe/ml · h
- AUC of viral load (RT-qPCR), fixed time period of 6.5 days, reduction in mean vs placebo (RSV-A Memphis-37b; 200 mg, ITT-I): 49.08%
- AUC of viral load (RT-qPCR), mean (SE) (RSV-A Memphis-37b; 350 mg, ITT-A): 210.61 (29.76) hours x log 10 PFUe/mL
- AUC of viral load (RT-qPCR), reduction in mean vs placebo (RSV-A Memphis-37b; 350 mg, ITT-A): 64.19%
- Peak viral load (RT-qPCR), mean (SE) (RSV-A Memphis-37b; 350 mg, ITT-A): 3.58 (0.40) log10 PFUe/mL
- Time to <1 log10 viral load (RT-qPCR), median (Q1, Q3) (RSV-A Memphis-37b; 350 mg, ITT-A): 3.5 (3.0, 4.0) days
- Time to peak viral load (RT-qPCR), mean (SE) (RSV-A Memphis-37b; 350 mg, ITT-A): 1.65 (0.39) days
- AUC of viral load (RT-qPCR), mean (SE) (RSV-A Memphis-37b; [3]): 207.56 (28.74) log10 PFUe/mL x hours
- AUC of viral load (RT-qPCR), reduction in mean vs placebo (RSV-A Memphis-37b; [3]): –302.95 log10 PFUe/mL x hours
- AUC of viral load (RT-qPCR), mean (SE) (RSV-A Memphis-37b; 350 mg, ITT-I): 185.26 log10 PFUe/ml · h and 185.26 (31.17) log10 PFUe/ml · h
- AUC of viral load (RT-qPCR), reduction in mean vs that of placebo (RSV-A Memphis-37b; 350 mg, ITT-I): 63.05%
- AUC of viral load (RT-qPCR, unlogged), mean (SE) (RSV-A Memphis-37b; 350 mg, ITT-I): 1,356,521.31 (1,117,131.13) PFUe/ml · h
- AUC of viral load (RT-qPCR, unlogged), reduction in mean vs that of placebo (RSV-A Memphis-37b; 350 mg, ITT-I): 98.87%
- Peak viral load (RT-qPCR), mean (SE) (RSV-A Memphis-37b; 350 mg, ITT-I): 3.17 log10 PFUe/ml and 3.17 (0.45) log10 PFUe/ml
- Time to <1 log10 viral load (RT-qPCR), median (Q1, Q3) (RSV-A Memphis-37b; 350 mg, ITT-I): 3.5 days and 3.5 (3.0, 4.0) (n = 13) days
- Time to peak viral load (RT-qPCR), mean (SE) (RSV-A Memphis-37b; 350 mg, ITT-I): 1.63 days and 1.63 (0.34) days
- Mean viral load at time of peak viral load in placebo arm (day 3; RT-qPCR), mean (SE) (RSV-A Memphis-37b; 350 mg, ITT-I): 0.80 (1.07) log10 PFUe/ml
- AUC of viral load (RT-qPCR), fixed time period of 6.5 days, mean (SE) (RSV-A Memphis-37b; 350 mg, ITT-I): 182.59 (30.29) log10 PFUe/ml · h
- AUC of viral load (RT-qPCR), fixed time period of 6.5 days, reduction in mean vs placebo (RSV-A Memphis-37b; 350 mg, ITT-I): 58.12%
- Time to steady-state plasma levels after the first dose ([1]; 200 mg and 350 mg): ≤ 24 h
- Subjects achieving target trough levels (3× protein-adjusted in vitro EC90) ([1]; 200 mg, after the first dose): 50%
- Subjects achieving target trough levels (3× protein-adjusted in vitro EC90) ([1]; 200 mg, after the second dose): 73%
- Subjects with trough levels in excess of the target (3× protein-adjusted in vitro EC90) ([1]; 350 mg, after the first dose): all subjects
- Increase of systemic exposure with dose ([1]; dose 1 and dose 10, 200 mg vs 350 mg): greater than dose-proportional
- half-life ([1]; in vivo, 200 mg and 350 mg, read-out: Elimination half-life (converted)): ~360 min
- Tmax ([1]; plasma, oral, 200 mg and 350 mg, postdose, read-out: Median time to maximum plasma concentration): 5 to 6 h
- concentration at 12 h ([1]; plasma, oral, 200 mg, dose 1): 22.6 ng/mL
- Cmax ([1]; plasma, oral, 200 mg, dose 1, plasma): 55.3 ng/mL
- AUC(0-t) ([1]; plasma, oral, 200 mg, dose 1): 255 ng·h/mL
- Tmax ([1]; plasma, oral, 200 mg, dose 1, read-out: Median Tmax): 5.04 h
- Cmax ([1]; plasma, oral, 200 mg, dose 10 (twice daily), plasma): 94.9 ng/mL
- concentration at 12 h ([1]; plasma, oral, 200 mg, dose 10): 39.4 ng/mL
- AUC(0-t) ([1]; plasma, oral, 200 mg, dose 10): 642 ng·h/mL
- Tmax ([1]; plasma, oral, 200 mg, dose 10, read-out: Median Tmax): 5.06 h
- concentration at 12 h ([1]; plasma, oral, 350 mg, dose 1): 80 ng/mL
- Cmax ([1]; plasma, oral, 350 mg, dose 1, plasma): 169 ng/mL
- AUC(0-t) ([1]; plasma, oral, 350 mg, dose 1): 953 ng·h/mL
- Tmax ([1]; plasma, oral, 350 mg, dose 1, read-out: Median Tmax): 6 h
- Cmax ([1]; plasma, oral, 350 mg, dose 10 (twice daily), plasma): 294 ng/mL
- concentration at 12 h ([1]; plasma, oral, 350 mg, dose 10): 151 ng/mL
- AUC(0-t) ([1]; plasma, oral, 350 mg, dose 10): 1900 ng·h/mL
- Tmax ([1]; plasma, oral, 350 mg, dose 10, read-out: Median Tmax): 5.05 h
- half-life ([1]; plasma, oral, 200 mg and 350 mg, read-out: Terminal half-life): 512 to 561 min
